Data on four compounds can be found in US8207108B2, “Stabilizing composition” (DSM IP Assets B.V., priority 2005, dated 2012).

Assay type in all cases: physicochemical
Series [1] in a line: Color stabilization in blue liquid soap, irradiated with 100 MED, visual PANTONE color. Conditions: irradiated 100 MED. The method, then: (§1) Basic formulation of the liquid soap:
(§2) The liquid soaps containing different colorants were irradiated with 100 MED and the color was determined visually according to Tints; PANTONE Color Tint Selector, The PANTONE Library of Color.
Blue liquid soap colored with FD&C Blue 1 W 092 (CI 42090)

Series [2] in a line: Color stabilization in violet liquid soap, irradiated with 100 MED, visual PANTONE color. Particulars: irradiated 100 MED. Here is the method: as §1, §2
Series [3] is described as follows: Solubility of stabilizer in water/ethanol mixture as found in perfumes (appearance). Particulars: 0.1 wt. % stabilizer in water/ethanol (96%) 53.9/46 wt. %. The source says:
An often occurring problem in the stabilization of colorants, dyes, fragrances and active ingredients is the solubility respectively the crystallization of the stabilizer/stabilizing composition in the final product form.

A short description of series [4]: Color stabilization in green liquid soap, irradiated with 100 MED, visual PANTONE color. Conditions: irradiated 100 MED. The method, then: as §1, §2
Green liquid soap colored with 0.9 ppm Green vent W 7003 (CI 61570)

[5] abbreviates: 0.1 wt. % stabilizer, blank non irradiated 70% Tint.

On to `O=C(c1ccccc1)c1ccc(O)cc1O` [Benzophenone-1, benzophenone-1], for which the “Index (PANTONE tint)” value in series [1] (0.1 wt. % stabilizer, blank non irradiated 50% Tint) came out at 50% Tint; in series [2] (setting [5]), 30% Tint. Moreover, the “Color (PANTONE)” value was “Pantone 3125C” in series [1] (FD&C Blue 1 W 092, 0.1 wt. % stabilizer, blank non irradiated Pantone 3125C); “Pantone 495C” in series [2] (3.1 ppm Vert Turquise W 7003 and 0.5 ppm FD&C Red 40WO93, 0.1 wt. % stabilizer, blank non irradiated Pantone 494C).

With `COc1ccc(C(=O)c2ccccc2)c(O)c1` [Benzophenon-3], the Appearance entry in series [3] is “Turbid”.

`O=C(c1ccc(O)cc1O)c1ccc(O)cc1O` [Benzophenon-2]: the Appearance entry in series [3] is reported as “Precipitate”.

As to `COc1cc(O)c(C(=O)c2ccccc2)cc1S(=O)(=O)O` [Benzophenone-4, benzophenone-4], in series [4] (setting [5]), the “Index (PANTONE tint)” value is 70% Tint. In addition, in series [4] (0.9 ppm Green vent W 7003, 0.1 wt. % stabilizer, blank non irradiated Pantone 367C), the “Color (PANTONE)” value is recorded as “Pantone 367C”.
